Assay results reported in PubChem BioAssay (NCI).
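All cell lines were grown in 96-well plates and treated with compound for 48 hours. Definition used: TGI = concentration required for complete inhibition of growth.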

Legend:
Assay in all cases: NCI-60 cell line screen, 48 h
786-0 renal = system: 786-0 renal
XF 498 CNS = system: XF 498 CNS
MOLT-4 leukemia = system: MOLT-4 leukemia
NCI-H460 lung = system: NCI-H460 lung
UO-31 renal = system: UO-31 renal
U251 CNS = system: U251 CNS
KM20L2 colon = system: KM20L2 colon
SK-MEL-2 melanoma = system: SK-MEL-2 melanoma
SNB-78 CNS = system: SNB-78 CNS
T-47D breast = system: T-47D breast
NCI/ADR-RES ovarian = system: NCI/ADR-RES ovarian
MDA-MB-231 breast = system: MDA-MB-231 breast

SMILES	TGI (786-0 renal) [µM]	TGI (XF 498 CNS) [µM]	TGI (MOLT-4 leukemia) [µM]	TGI (NCI-H460 lung) [µM]	TGI (UO-31 renal) [µM]	TGI (U251 CNS) [µM]	TGI (KM20L2 colon) [µM]	TGI (SK-MEL-2 melanoma) [µM]	TGI (SNB-78 CNS) [µM]	TGI (T-47D breast) [µM]	TGI (NCI/ADR-RES ovarian) [µM]	TGI (MDA-MB-231 breast) [µM]
C/C(=C\Cc1cc(O)ccc1O)CCc1c(C)c(O)c(O)c(C=O)c1C	62.2	48.8	> 100	53.3	98.8	59.6	> 100	54.4				
CC1=NN(C(=O)c2ccc(Cl)cc2)C(=O)/C1=C/c1ccc(Cl)cc1	> 100	> 100	> 100	> 100	> 100	> 100	> 100	> 100	> 100			
C#CCSc1nc(N)c2ncn(C3OC(COP(=O)(O)O)C(O)C3O)c2n1 (stereo not given)	> 239	> 239	> 239	> 239	> 239		> 239	> 239	> 239			
COc1cccc(NC(=O)CC(=O)NNCC(=O)Nc2nnc(-c3ccc(N(CCC#N)S(=O)(=O)c4ccccc4)cc3)s2)c1		> 100	> 100		> 100	> 100	> 100	> 100	> 100			
CN1Cc2c(nc(-c3ccc(Br)cc3)c[n+]2[O-])N(C)C1	> 100	> 100	> 100	> 100	> 100	> 100	> 100	> 100	> 100			
COC1=CC(=O)c2c(O)c3c(c(O)c2C1=O)C[C@](C)(O)C[C@@H]3O	46.7	9.5	31.4	6.84	26.9	14.6	> 100	14.3	16.3	22.3	29	28.3
CC(=O)Nc1ccc(C(=O)N2N=C(C)/C(=C/c3cccc([N+](=O)[O-])c3)C2=O)cc1	> 100		> 100	> 100	> 100				> 100			
CN(/N=N/c1nc[nH]c1C(N)=O)C1CCCCC1		> 100	> 100	> 100		> 100	> 100	> 100	> 100			
C=CCC1(CC)C(=O)NC(=O)NC1=O	> 100		> 100	> 100	> 100	> 100	> 100		> 100			
Cc1c(C#N)c2nnn(-c3ccccc3)c(=O)n2c1-c1ccccc1	30.1		30.5	> 76.6	> 100	> 100		> 72.9		87.4	14.6	> 100
COc1cc(/C=C2\Cc3cc(OC)c(OC)cc3C2=O)cc(OC)c1	> 56.6		> 100	74.7	> 100	> 100		> 100		> 100	> 100	> 100
